Assays:
Assay in all cases: KINOMEscan competition binding
Details in all cases: compound 10.0 µM
[1] = target: PIP5K1A (human) (UniProt Q99755)
[2] = target: TYK2 JH1 catalytic (human) (UniProt P29597)
[3] = target: RPS6KA6 KD1 (human) (UniProt Q9UK32)
[4] = target: MAP3K9 (human) (UniProt P80192)
[5] = target: MAP4K3 (human) (UniProt Q8IVH8)
[6] = target: TGFBR1 (human) (UniProt P36897)
[7] = target: STK35 (human) (UniProt Q8TDR2)
[8] = target: FGFR1 (human) (UniProt P11362)
[9] = target: NTRK2 (human) (UniProt Q16620)
[10] = target: NTRK1 (human) (UniProt P04629)
[11] = target: DMPK (human) (UniProt Q09013)
DMPK (human), sequence (Q09013 whole entry, looked up): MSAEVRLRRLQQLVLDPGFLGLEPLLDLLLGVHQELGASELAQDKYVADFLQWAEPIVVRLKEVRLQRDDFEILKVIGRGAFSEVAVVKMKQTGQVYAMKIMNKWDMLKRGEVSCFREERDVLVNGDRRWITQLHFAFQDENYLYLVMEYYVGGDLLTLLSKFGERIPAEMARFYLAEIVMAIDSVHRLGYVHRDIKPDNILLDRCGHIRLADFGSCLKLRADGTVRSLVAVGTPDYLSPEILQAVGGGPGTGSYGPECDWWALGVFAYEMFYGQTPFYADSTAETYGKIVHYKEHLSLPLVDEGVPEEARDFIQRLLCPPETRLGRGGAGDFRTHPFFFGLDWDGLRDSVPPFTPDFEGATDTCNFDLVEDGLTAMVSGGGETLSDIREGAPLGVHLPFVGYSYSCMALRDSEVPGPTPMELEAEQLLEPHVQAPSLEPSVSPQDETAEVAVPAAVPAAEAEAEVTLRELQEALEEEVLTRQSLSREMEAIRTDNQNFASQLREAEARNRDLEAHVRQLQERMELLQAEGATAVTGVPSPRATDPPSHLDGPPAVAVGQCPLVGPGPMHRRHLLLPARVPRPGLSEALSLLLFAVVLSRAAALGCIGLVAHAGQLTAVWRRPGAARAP

[12] = target: TAOK3 (human) (UniProt Q9H2K8)
TAOK3 (human), sequence (Q9H2K8 whole entry, looked up): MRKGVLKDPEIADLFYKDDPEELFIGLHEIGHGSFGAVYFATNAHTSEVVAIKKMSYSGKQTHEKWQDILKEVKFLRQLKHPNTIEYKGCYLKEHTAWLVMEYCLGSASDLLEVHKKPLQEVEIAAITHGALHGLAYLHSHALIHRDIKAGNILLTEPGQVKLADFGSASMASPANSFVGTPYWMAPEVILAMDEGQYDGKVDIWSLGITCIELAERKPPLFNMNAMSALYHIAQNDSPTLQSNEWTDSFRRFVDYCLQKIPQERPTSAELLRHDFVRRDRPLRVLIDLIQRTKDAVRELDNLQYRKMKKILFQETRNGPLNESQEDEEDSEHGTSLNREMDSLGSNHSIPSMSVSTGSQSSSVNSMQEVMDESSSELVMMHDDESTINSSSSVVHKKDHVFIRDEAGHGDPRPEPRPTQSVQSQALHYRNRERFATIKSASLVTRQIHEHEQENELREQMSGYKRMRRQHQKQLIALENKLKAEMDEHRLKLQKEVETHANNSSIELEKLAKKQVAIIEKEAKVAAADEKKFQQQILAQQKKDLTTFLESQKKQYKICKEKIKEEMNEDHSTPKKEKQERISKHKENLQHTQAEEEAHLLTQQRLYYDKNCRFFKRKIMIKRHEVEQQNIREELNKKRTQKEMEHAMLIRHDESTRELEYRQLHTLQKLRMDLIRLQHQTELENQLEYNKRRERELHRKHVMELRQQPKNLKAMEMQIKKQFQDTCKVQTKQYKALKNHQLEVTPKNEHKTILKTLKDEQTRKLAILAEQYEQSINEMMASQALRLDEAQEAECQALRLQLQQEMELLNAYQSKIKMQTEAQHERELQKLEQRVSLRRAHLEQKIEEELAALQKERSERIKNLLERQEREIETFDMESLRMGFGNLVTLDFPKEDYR

[13] = target: CDK18 (human) (UniProt Q07002)
[14] = target: EPHA7 (human) (UniProt Q15375)
[15] = target: MELK (human) (UniProt Q14680)
[16] = target: PAK4 (human) (UniProt O96013)
[17] = target: CAMK1D (human) (UniProt Q8IU85)
[18] = target: RIPK1 (human) (UniProt Q13546)
[19] = target: ACVRL1 (human) (UniProt P37023)
[20] = target: TSSK1B (human) (UniProt Q9BXA7)
[21] = target: CDK8 (human) (UniProt P49336)
[22] = target: GAK (human) (UniProt O14976)
[23] = target: PKN1 (human) (UniProt Q16512)
[24] = target: PKMYT1 (human) (UniProt Q99640)
[25] = target: LIMK1 (human) (UniProt P53667)
LIMK1 (human), sequence (P53667 whole entry, looked up): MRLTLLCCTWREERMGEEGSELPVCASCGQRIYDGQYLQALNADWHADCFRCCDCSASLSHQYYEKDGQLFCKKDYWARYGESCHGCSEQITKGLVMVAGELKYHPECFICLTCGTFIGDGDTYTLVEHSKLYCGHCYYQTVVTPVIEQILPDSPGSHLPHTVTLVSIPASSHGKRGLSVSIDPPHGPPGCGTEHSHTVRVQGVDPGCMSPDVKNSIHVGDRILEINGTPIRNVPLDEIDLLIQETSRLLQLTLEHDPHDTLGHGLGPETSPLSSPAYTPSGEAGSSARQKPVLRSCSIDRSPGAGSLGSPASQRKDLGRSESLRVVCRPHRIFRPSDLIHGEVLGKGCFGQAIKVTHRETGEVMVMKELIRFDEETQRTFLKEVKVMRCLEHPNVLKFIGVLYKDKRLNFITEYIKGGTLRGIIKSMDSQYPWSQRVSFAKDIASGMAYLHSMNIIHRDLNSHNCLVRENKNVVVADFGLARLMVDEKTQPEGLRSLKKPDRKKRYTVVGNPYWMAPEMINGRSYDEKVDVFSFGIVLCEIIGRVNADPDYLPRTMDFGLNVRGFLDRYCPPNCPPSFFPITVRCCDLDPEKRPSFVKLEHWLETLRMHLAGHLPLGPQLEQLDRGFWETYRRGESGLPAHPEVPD

[26] = target: CAMK2A (human) (UniProt Q9UQM7)
[27] = target: PIK3CB (human) (UniProt P42338)
[28] = target: TEK (human) (UniProt Q02763)
[29] = target: CSNK1A1L (human) (UniProt Q8N752)
CSNK1A1L (human), sequence (Q8N752 whole entry, looked up): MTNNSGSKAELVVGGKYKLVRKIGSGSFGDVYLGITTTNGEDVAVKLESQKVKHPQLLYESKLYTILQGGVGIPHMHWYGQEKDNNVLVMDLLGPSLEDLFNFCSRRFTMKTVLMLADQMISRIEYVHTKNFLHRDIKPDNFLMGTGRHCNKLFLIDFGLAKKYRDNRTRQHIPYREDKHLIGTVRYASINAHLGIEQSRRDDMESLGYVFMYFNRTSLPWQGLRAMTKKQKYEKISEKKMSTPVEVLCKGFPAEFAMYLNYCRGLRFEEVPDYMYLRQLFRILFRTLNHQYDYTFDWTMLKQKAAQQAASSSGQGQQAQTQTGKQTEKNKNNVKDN

[30] = target: TYRO3 (human) (UniProt Q06418)
TYRO3 (human), sequence (Q06418 whole entry, looked up): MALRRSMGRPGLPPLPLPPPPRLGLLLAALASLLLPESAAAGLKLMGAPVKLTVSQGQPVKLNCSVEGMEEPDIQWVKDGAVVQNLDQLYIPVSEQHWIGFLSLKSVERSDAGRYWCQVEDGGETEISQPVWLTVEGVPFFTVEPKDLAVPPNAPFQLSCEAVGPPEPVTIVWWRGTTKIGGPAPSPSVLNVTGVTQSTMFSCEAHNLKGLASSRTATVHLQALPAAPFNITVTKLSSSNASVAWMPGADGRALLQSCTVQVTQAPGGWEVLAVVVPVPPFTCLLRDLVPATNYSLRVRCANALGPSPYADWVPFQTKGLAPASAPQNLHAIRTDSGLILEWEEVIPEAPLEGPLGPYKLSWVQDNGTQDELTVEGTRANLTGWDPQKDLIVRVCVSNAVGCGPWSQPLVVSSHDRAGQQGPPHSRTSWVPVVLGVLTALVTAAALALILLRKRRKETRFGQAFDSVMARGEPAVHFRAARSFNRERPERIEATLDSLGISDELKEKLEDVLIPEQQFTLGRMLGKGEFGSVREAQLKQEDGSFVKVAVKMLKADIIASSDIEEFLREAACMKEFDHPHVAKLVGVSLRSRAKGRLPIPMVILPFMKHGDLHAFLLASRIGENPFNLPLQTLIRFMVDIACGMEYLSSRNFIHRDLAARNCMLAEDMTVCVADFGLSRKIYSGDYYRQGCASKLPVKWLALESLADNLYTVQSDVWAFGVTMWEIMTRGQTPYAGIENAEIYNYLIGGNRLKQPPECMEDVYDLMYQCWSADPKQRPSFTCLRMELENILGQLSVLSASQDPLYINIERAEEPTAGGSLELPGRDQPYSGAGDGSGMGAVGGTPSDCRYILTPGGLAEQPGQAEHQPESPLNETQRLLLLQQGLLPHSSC

[31] = target: PRKCE (human) (UniProt Q02156)
[32] = target: PIM3 (human) (UniProt Q86V86)
[33] = target: GRK4 (human) (UniProt P32298)
[34] = target: PRPF4B (human) (UniProt Q13523)
[35] = target: PIK3C2G (human) (UniProt O75747)
[36] = target: SBK1 (human) (UniProt Q52WX2)
[37] = target: STK38 (human) (UniProt Q15208)

RPS6KA6 KD1 (human), sequence (Q9UK32 whole entry, looked up): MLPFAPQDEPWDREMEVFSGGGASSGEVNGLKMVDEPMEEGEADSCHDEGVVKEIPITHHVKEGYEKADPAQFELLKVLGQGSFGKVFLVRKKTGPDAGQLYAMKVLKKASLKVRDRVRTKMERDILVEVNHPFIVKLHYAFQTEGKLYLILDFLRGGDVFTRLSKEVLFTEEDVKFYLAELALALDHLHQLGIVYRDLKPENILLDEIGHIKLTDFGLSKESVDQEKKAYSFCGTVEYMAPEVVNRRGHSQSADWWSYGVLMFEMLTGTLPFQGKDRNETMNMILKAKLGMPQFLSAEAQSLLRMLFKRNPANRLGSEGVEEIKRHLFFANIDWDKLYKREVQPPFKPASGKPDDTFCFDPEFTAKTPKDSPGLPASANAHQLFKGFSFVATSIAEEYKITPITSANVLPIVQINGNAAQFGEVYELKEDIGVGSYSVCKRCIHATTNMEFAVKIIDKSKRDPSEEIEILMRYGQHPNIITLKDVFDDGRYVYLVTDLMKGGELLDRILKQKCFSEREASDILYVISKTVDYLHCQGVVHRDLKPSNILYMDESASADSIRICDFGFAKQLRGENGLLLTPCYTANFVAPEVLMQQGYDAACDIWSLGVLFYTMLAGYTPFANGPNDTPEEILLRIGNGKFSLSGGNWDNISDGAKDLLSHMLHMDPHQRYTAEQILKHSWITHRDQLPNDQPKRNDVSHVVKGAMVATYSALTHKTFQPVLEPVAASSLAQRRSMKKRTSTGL
PIP5K1A (human), sequence (Q99755 whole entry, looked up): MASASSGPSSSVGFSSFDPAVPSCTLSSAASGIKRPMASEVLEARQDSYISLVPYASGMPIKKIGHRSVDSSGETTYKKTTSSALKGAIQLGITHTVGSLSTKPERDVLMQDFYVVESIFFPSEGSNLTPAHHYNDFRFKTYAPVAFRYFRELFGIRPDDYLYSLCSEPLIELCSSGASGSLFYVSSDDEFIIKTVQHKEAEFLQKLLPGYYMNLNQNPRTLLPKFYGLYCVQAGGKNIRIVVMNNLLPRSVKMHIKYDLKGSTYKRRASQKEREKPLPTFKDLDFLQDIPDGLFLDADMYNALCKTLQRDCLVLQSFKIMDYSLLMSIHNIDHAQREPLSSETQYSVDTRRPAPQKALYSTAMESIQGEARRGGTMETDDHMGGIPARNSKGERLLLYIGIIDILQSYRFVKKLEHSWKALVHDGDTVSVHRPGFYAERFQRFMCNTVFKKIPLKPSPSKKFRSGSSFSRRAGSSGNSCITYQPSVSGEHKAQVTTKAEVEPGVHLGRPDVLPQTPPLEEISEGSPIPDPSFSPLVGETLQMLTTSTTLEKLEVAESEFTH

Row | kinase still bound, per cent of control [1] [%] | kinase still bound, per cent of control [2] [%] | kinase still bound, per cent of control [3] [%] | kinase still bound, per cent of control [4] [%] | kinase still bound, per cent of control [5] [%] | kinase still bound, per cent of control [6] [%] | kinase still bound, per cent of control [8] [%] | kinase still bound, per cent of control [9] [%] | kinase still bound, per cent of control [10] [%] | kinase still bound, per cent of control [11] [%] | kinase still bound, per cent of control [13] [%] | kinase still bound, per cent of control [14] [%] | kinase still bound, per cent of control [15] [%] | kinase still bound, per cent of control [16] [%] | kinase still bound, per cent of control [17] [%] | kinase still bound, per cent of control [18] [%] | kinase still bound, per cent of control [19] [%] | kinase still bound, per cent of control [20] [%] | kinase still bound, per cent of control [21] [%] | kinase still bound, per cent of control [22] [%] | SMILES | also measured
1 | 100 | 100 | 100 | 100 | 100 | 100 | 100 | 100 | 100 | 100 | 100 | 15 | 100 | 100 | 100 | 100 | 100 | 100 | 100 | 2.5 | COc1cc(N2CCC(C(N)=O)CC2)ccc1Nc1nc(N)c(Cl)c(Nc2ccccc2S(=O)(=O)C(C)C)n1 | kinase still bound, per cent of control [7]: 100%; kinase still bound, per cent of control [12]: 100%; kinase still bound, per cent of control [23]: 100%; kinase still bound, per cent of control [24]: 100%; kinase still bound, per cent of control [25]: 100%; kinase still bound, per cent of control [26]: 32%; kinase still bound, per cent of control [27]: 100%; kinase still bound, per cent of control [28]: 100%; kinase still bound, per cent of control [29]: 21%; kinase still bound, per cent of control [30]: 100%; kinase still bound, per cent of control [31]: 100%; kinase still bound, per cent of control [32]: 100%
2 | 100 | 100 | 100 | 100 | 100 | 100 | 100 | 100 | 100 | 100 | 100 | 100 | 100 | 100 | 100 | 100 | 100 | 100 | 100 | 31 | CCOc1cc(N2CCC(O)CC2)ccc1Nc1ncc2c(n1)N(C)c1ccccc1C(=O)N2C | kinase still bound, per cent of control [7]: 100%; kinase still bound, per cent of control [33]: 100%; kinase still bound, per cent of control [34]: 100%; kinase still bound, per cent of control [35]: 100%; kinase still bound, per cent of control [12]: 100%; kinase still bound, per cent of control [23]: 100%; kinase still bound, per cent of control [24]: 100%; kinase still bound, per cent of control [36]: 100%; kinase still bound, per cent of control [25]: 100%; kinase still bound, per cent of control [26]: 100%; kinase still bound, per cent of control [27]: 100%; kinase still bound, per cent of control [28]: 100%; kinase still bound, per cent of control [29]: 100%; kinase still bound, per cent of control [37]: 100%; kinase still bound, per cent of control [30]: 100%; kinase still bound, per cent of control [31]: 100%; kinase still bound, per cent of control [32]: 100%
3 | 100 | 100 | 100 | 100 | 100 | 100 | 100 | 23 | 20 | 100 | 100 | 100 | 100 | 100 | 100 | 100 | 100 | 100 | 100 | 100 | COc1cc(C)c(Sc2cnc(NC(=O)c3ccc(CNC(C)C(C)C)cc3)s2)cc1C(=O)N1CCN(C(C)=O)CC1 (stereo not given) | kinase still bound, per cent of control [7]: 100%; kinase still bound, per cent of control [12]: 3.6%; kinase still bound, per cent of control [23]: 100%; kinase still bound, per cent of control [24]: 100%; kinase still bound, per cent of control [25]: 100%; kinase still bound, per cent of control [26]: 100%; kinase still bound, per cent of control [27]: 100%; kinase still bound, per cent of control [28]: 29%; kinase still bound, per cent of control [29]: 100%; kinase still bound, per cent of control [30]: 100%; kinase still bound, per cent of control [31]: 100%; kinase still bound, per cent of control [32]: 100%
4 | 100 | 27 | 100 | 100 | 100 | 100 | 0.6 | 24 | 27 | 100 | 100 | 0.6 | 100 | 100 | 100 | 100 | 100 | 100 | 100 | 26 | COc1ccc(N(C(=O)Oc2cc(C(=O)Nc3cccc(C(F)(F)F)c3)ccc2C)c2ccnc(Nc3ccc(N4CCN(C)CC4)cc3)n2)c(OC)c1 | kinase still bound, per cent of control [23]: 100%; kinase still bound, per cent of control [24]: 100%; kinase still bound, per cent of control [25]: 2.8%; kinase still bound, per cent of control [26]: 100%; kinase still bound, per cent of control [28]: 0.05%; kinase still bound, per cent of control [29]: 100%; kinase still bound, per cent of control [30]: 100%; kinase still bound, per cent of control [31]: 100%; kinase still bound, per cent of control [32]: 100%

Source: the kinase profiling compilation of Christmann-Franck et al. (2016)
